# Experimental data as given in US10202361B2, “Pyridazinones as herbicides” (E I DU PONT DE NEMOURS AND COMPANY, priority 2014, dated 2019).
# Columns and labels:
# Assay in all cases: Test C pre-/postemergence greenhouse herbicide test
# Format in all cases: in vivo
# [1] = test system: waterhemp (common waterhemp, Amaranthus rudis); settings: Preemergence; for Plant response rating, Waterhemp: visual rating on scale 0 (no effect) to 100 (complete control), 13 to 15 d
# Summary of the method: (§1)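 Seeds in loam–sand blend sprayed preemergence, and 1- to 4-leaf plants (2–18 cm) sprayed postemergence, with compounds in non-phytotoxic solvent plus surfactant. Visual rating versus controls after 13–15 d in greenhouse, 0 (no effect) to 100 (complete control).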
# [2] = test system: ragweed (common ragweed, Ambrosia elatior); settings: Preemergence; for Plant response rating, Ragweed: visual rating on scale 0 (no effect) to 100 (complete control), 13 to 15 d
# Summary of the method: as §1
# [3] = test system: wheat (winter wheat, Triticum aestivum); settings: Preemergence; for Plant response rating, Wheat: visual rating on scale 0 (no effect) to 100 (complete control), 13 to 15 d
# Summary of the method: as §1
# [4] = test system: crabgrass, Large (large crabgrass, Digitaria sanguinalis); settings: Preemergence; for Plant response rating, Crabgrass, Large: visual rating on scale 0 (no effect) to 100 (complete control), 13 to 15 d
# Summary of the method: as §1
# [5] = test system: galium (catchweed bedstraw, Galium aparine); settings: Preemergence; for Plant response rating, Galium: visual rating on scale 0 (no effect) to 100 (complete control), 13 to 15 d
# Summary of the method: as §1
# [6] = test system: blackgrass (Alopecurus myosuroides); settings: Preemergence; for Plant response rating, Blackgrass: visual rating on scale 0 (no effect) to 100 (complete control), 13 to 15 d
# Summary of the method: as §1
# [7] = test system: ryegrass, Italian (Italian ryegrass, Lolium multiflorum); settings: Preemergence; for Plant response rating, Ryegrass, Italian: visual rating on scale 0 (no effect) to 100 (complete control), 13 to 15 d
# Summary of the method: as §1
# [8] = test system: morningglory (Ipomoea coccinea); settings: Preemergence; for Plant response rating: Morningglory; for Plant response rating, Morningglory: visual rating on scale 0 (no effect) to 100 (complete control), 13 to 15 d
# Summary of the method: as §1
# [9] = test system: barnyardgrass (Echinochloa crus-galli); settings: Preemergence; for Plant response rating: Barnyardgrass; for Plant response rating, Barnyardgrass: visual rating on scale 0 (no effect) to 100 (complete control), 13 to 15 d
# Summary of the method: as §1
compound,measurement,setting,value
"CCOc1cc(=O)n(-c2ccc(F)cc2)nc1C(O)c1ccnc(C(F)(F)F)c1 (stereo not shown) [Compound 23, 5-ethoxy-2-(4-fluorophenyl)-6-[hydroxy[2-(trifluoromethyl)-4-pyridinyl]methyl]-3(2H)-pyridazinone]","Plant response rating, Waterhemp",[1]; 8 g ai/ha,85
same,"Plant response rating, Waterhemp",[1]; 16 g ai/ha,100
same,Plant response rating,"[1]; Waterhemp, 62 g ai/ha",100
same,pest or weed control at 31 g/ha,"[2]; Ambrosia artemisiifolia, pre-emergence, Ragweed, 31 g ai/ha, read-out: Plant response rating",60%
same,pest or weed control at 62 g/ha,"[2]; Ambrosia artemisiifolia, pre-emergence, Ragweed, 62 g ai/ha, read-out: Plant response rating",55%
same,"Plant response rating, Ragweed",[2]; 8 g ai/ha,0
same,"Plant response rating, Ragweed",[2]; 16 g ai/ha,60
same,"Plant response rating, Wheat",[3]; 8 g ai/ha,0
same,"Plant response rating, Wheat",[3]; 16 g ai/ha,0
same,plant injury at 62 g/ha,"[3]; Triticum aestivum, pre-emergence, Wheat, 62 g ai/ha, read-out: Plant response rating",10%
same,pest or weed control at 31 g/ha,"[4]; Digitaria sanguinalis, pre-emergence, Crabgrass, Large, 31 g ai/ha, read-out: Plant response rating",65%
same,pest or weed control at 62 g/ha,"[4]; Digitaria sanguinalis, pre-emergence, Crabgrass, Large, 62 g ai/ha, read-out: Plant response rating",100%
same,"Plant response rating, Crabgrass, Large",[4]; 8 g ai/ha,5
same,"Plant response rating, Crabgrass, Large",[4]; 16 g ai/ha,50
same,"Plant response rating, Galium",[5]; 8 g ai/ha,85
same,"Plant response rating, Galium",[5]; 16 g ai/ha,85
same,pest or weed control at 31 g/ha,"[5]; pre-emergence, Galium, 31 g ai/ha, read-out: Plant response rating",90%
same,pest or weed control at 62 g/ha,"[5]; pre-emergence, Galium, 62 g ai/ha, read-out: Plant response rating",95%
same,pest or weed control at 31 g/ha,"[6]; Alopecurus myosuroides, pre-emergence, Blackgrass, 31 g ai/ha, read-out: Plant response rating",50%
same,pest or weed control at 62 g/ha,"[6]; Alopecurus myosuroides, pre-emergence, Blackgrass, 62 g ai/ha, read-out: Plant response rating",5%
same,"Plant response rating, Blackgrass",[6]; 8 g ai/ha,0
same,"Plant response rating, Blackgrass",[6]; 16 g ai/ha,0
same,pest or weed control at 31 g/ha,"[7]; Lolium multiflorum, pre-emergence, Ryegrass, Italian, 31 g ai/ha, read-out: Plant response rating",0%
same,pest or weed control at 62 g/ha,"[7]; Lolium multiflorum, pre-emergence, Ryegrass, Italian, 62 g ai/ha, read-out: Plant response rating",5%
same,"Plant response rating, Ryegrass, Italian",[7]; 8 g ai/ha,0
same,"Plant response rating, Ryegrass, Italian",[7]; 16 g ai/ha,0
same,Plant response rating,[8]; 31 g ai/ha,55
same,Plant response rating,[8]; 62 g ai/ha,98
same,"Plant response rating, Morningglory",[8]; 8 g ai/ha,10
same,"Plant response rating, Morningglory",[8]; 16 g ai/ha,20
same,Plant response rating,[9]; 31 g ai/ha,25
same,Plant response rating,[9]; 62 g ai/ha,25
same,"Plant response rating, Barnyardgrass",[9]; 8 g ai/ha,0
same,"Plant response rating, Barnyardgrass",[9]; 16 g ai/ha,0
